In one test the test system is Escherichia coli biofilm. Kind of test: Antibiofilm assay (crystal violet). It is filed as cell-based. Details: unit not given here. The note with it: E. coli, 570 nm; for MBIC: biofilm formed in presence of AMPs (prevention); for MBEC: pre-formed biofilm (eradication). How it is done:
(§1) Biofilms of the aforementioned microbes were allowed to form in microtiter plates under respective culture conditions in the absence (eradication) or presence (prevention) of AMPs. After incubation, the culture supernatant was discarded, and each well was gently rinsed to remove planktonic bacteria. Biofilms were fixed with methanol and stained with 0.1% crystal violet for 20 min; then the dye bound to the cells was resolubilized with ethanol, and the absorbance of the solution was evaluated at 570 nm using a microplate reader ([Abouelhassan et al., 2017]).

The subject of test [1] is Staphylococcus aureus biofilm. In words: Antibiofilm assay (crystal violet). In kind it is cell-based. Details: unit not given here. To be noted: S. aureus, 570 nm; for MBEC: biofilm eradication; for MBIC: biofilm prevention. How it is done:
as §1

The test system of another test is Candida albicans biofilm. Kind of test: Antibiofilm assay (crystal violet). In kind it is cell-based. The note with it: C. albicans, 570 nm; for MBEC: biofilm eradication; for MBIC: biofilm prevention. How it is done: as §1
A further test concerns C. albicans. Kind of test: In vivo antimicrobial assay, skin infection mouse model. To be noted: neutropenic mice, s.c. 100 μl of 1.0 × 10^8 CFU⋅ml^–1 C. albicans; 100 μl AMP at MIC s.c. daily from 12 h post-infection; day 4; vs control. How it is done:
(§2) In vivo antimicrobial activities of the designed AMPs were examined in neutropenic mice following subcutaneous inoculation of 100 μl of 1.0 × 10^8 CFU⋅ml^–1 E. coli, S. aureus, or C. albicans ([Lee et al., 2005]). At 12 h post-infection, 100 μl of AMPs at the respective MIC value was applied by subcutaneous injection each day. Mice were sacrificed on day 4, and the infected area was carefully excised and homogenized. The CFU count was determined after overnight incubation of the homogenate aliquots. All animal care and experiments were performed in compliance with institutional and government guidelines and were approved by the Peking Union Medical College Hospital Animal Care and Use Committee.

For another test, the system named is E. coli. The description is as above. To be noted: neutropenic mice, s.c. 100 μl of 1.0 × 10^8 CFU⋅ml^–1 E. coli; 100 μl AMP at MIC s.c. daily from 12 h post-infection; day 4; vs control. How it is done: as §2
For another test, the system named is S. aureus. The test is described as above. To be noted: neutropenic mice, s.c. 100 μl of 1.0 × 10^8 CFU⋅ml^–1 S. aureus; 100 μl AMP at MIC s.c. daily from 12 h post-infection; day 4; vs control. How it is done: as §2

No end group written: not given here.

As to “DKLIGSCVWGAVNYTSDCNAECKRRGYKGGHCGSFANVNCWCET (disulfide (positions not given here)) [DefA, designed synthetic butterfly defensin analog]”, in the test with Escherichia coli biofilm, the MBIC was found to be 8 and the MBEC turned out to be 32. Moreover, in test [1], the MBEC is given as 16 and the MBIC was 4.
For “GCVFYECIARCRQRGYLSGGYCTINGCQCL-NH2 (disulfide (positions not given here)) [DefB, designed synthetic butterfly defensin analog, C-terminally amidated]”, in that order: 8, 32, 16 and 2.
In the case of “GKIPIGAIKKGAKAVGKGLKALNIASTAHDIYSFHHKKKKH [MorA, designed synthetic butterfly moricin analog]”, the MBIC (in the test with Escherichia coli biofilm; in test [1]; with Candida albicans biofilm) was 4 throughout. Further, the MBEC stood at 8 in the test on Escherichia coli biofilm, 16 in test [1] and 16 with Candida albicans biofilm. Also, in the test with C. albicans, the “CFU count in infected skin” value was “suppress proliferation”.
As for “KWKIFKKIEKVGRNIRDGIIKAGPAVQVVGQAATIYKGK [CecB, designed synthetic butterfly cecropin analog]”, the results for the MBIC (with Escherichia coli biofilm; in test [1]; with Candida albicans biofilm) were 2, 2 and 16, respectively. In addition, the MBEC in the test with Escherichia coli biofilm came to 8; in test [1], 16; with Candida albicans biofilm, 32. In addition, the “CFU count in infected skin” value in the test with E. coli and in the test on S. aureus was “attenuate growth” throughout.

Values taken from publication PMC8427292, “Identification and Characterization of Antimicrobial Peptides From Butterflies: An Integrated Bioinformatics and Experimental Study” (Frontiers in Microbiology, 2021).
